In PubChem BioAssay AID328 (DTP/NCI, 2004) one finds T/C data, which are given here for 23 compounds.

Each structure is given as a SMILES string. Values joined by “and” are separate entries in the source; they are usually repeats but may differ in a detail not shown here. Identical values can stand only once. Toxic doses and inconclusive results are not listed.

For this assay, the system named is BDF1 mice, P388 leukemia ip, median survival T/C. As to the kind of experiment: NCI In Vivo Anticancer Drug Screen. Data for tumor model P388 Leukemia (intraperitoneal) in B6D2F1 (BDF1) mice. As to conditions: endpoint: median survival time, higher = longer survival. Put shortly:
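T/C = treated-group survival ÷ vehicle-control survival; tumour transplanted into mice before dosing.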

Setting [1] is: dose: 100.0 mg/kg/injection, schedule: Q04DX003 (ip), vehicle: saline.
Where [2] appears, read: dose: 200.0 mg/kg/injection, schedule: Q04DX003 (ip), vehicle: saline.
Setting [3] is: dose: 400.0 mg/kg/injection, schedule: Q04DX003 (ip), vehicle: saline.
Setting [4] is: dose: 12.5 mg/kg/injection, schedule: Q01DX009 (ip), vehicle: saline.
[5] abbreviates: dose: 25.0 mg/kg/injection, schedule: Q01DX009 (ip), vehicle: saline.
Setting [6] is: dose: 50.0 mg/kg/injection, schedule: Q01DX009 (ip), vehicle: saline.
[7] abbreviates: dose: 100.0 mg/kg/injection, schedule: Q01DX009 (ip), vehicle: saline.
Setting [8] is: dose: 25.0 mg/kg/injection, schedule: Q01DX009 (ip), vehicle: saline with Tween-80.
The mark [9] stands for this setting: dose: 50.0 mg/kg/injection, schedule: Q01DX009 (ip), vehicle: saline with Tween-80.
The mark [10] stands for this setting: dose: 100.0 mg/kg/injection, schedule: Q01DX009 (ip), vehicle: saline with Tween-80.
The mark [11] stands for this setting: dose: 6.25 mg/kg/injection, schedule: Q01DX009 (ip), vehicle: saline with Tween-80.
The mark [12] stands for this setting: dose: 12.5 mg/kg/injection, schedule: Q01DX009 (ip), vehicle: saline with Tween-80.
The mark [13] stands for this setting: dose: 200.0 mg/kg/injection, schedule: Q01DX009 (ip), vehicle: saline with Tween-80.
Setting [14] is: dose: 100.0 mg/kg/injection, schedule: Q01DX001 (ip), vehicle: saline with Tween-80.
Setting [15] is: dose: 200.0 mg/kg/injection, schedule: Q01DX001 (ip), vehicle: saline with Tween-80.
Where [16] appears, read: dose: 400.0 mg/kg/injection, schedule: Q01DX001 (ip), vehicle: saline with Tween-80.

Regarding `CCC1c2ccc3cc(OC)ccc3c2CC1CC(=O)O` (stereo unspecified), the T/C (dose: 100.0 mg/kg/injection, schedule: Q01DX001 (ip), vehicle: other) was 100 % of control; the T/C (dose: 200.0 mg/kg/injection, schedule: Q01DX001 (ip), vehicle: other) was 110 % of control; the T/C (dose: 400.0 mg/kg/injection, schedule: Q01DX001 (ip), vehicle: other) is 105 % of control.

With `CC(O)C(C)(C)CO` (stereo unspecified), the T/C by setting is: under setting [1], 100 % of control; under setting [2], 100 % of control; under setting [3], 100 % of control.

For `Clc1cc(CBr)c(Cl)c(Cl)c1CBr`, the T/C runs as follows: (dose: 6.25 mg/kg/injection, schedule: Q01DX009 (ip), vehicle: Klucel (hydroxypropylcellulose) (HPC)) 109 % of control; (dose: 6.25 mg/kg/injection, schedule: Q01DX009 (ip), vehicle: saline) 100 % of control; (dose: 6.25 mg/kg/injection, schedule: Q04DX003 (ip), vehicle: saline sonified) 95 % of control; (dose: 12.5 mg/kg/injection, schedule: Q01DX009 (ip), vehicle: Klucel (hydroxypropylcellulose) (HPC)) 109 % of control; under setting [4], 103 % of control; (dose: 12.5 mg/kg/injection, schedule: Q04DX003 (ip), vehicle: saline sonified) 100 % of control. Further, the T/C under setting [5] was 110 % of control and the T/C (dose: 25.0 mg/kg/injection, schedule: Q04DX003 (ip), vehicle: saline sonified) is 100 % of control.

Regarding `CC1COB(c2ccccc2)OCC(C)N1CNC(=O)C1=C(O)C2(O)C(O)=C3C(=O)C4C(O)=CC=CC4C(C)(O)C3CC2C(N(C)C)C1=O` (stereo unspecified), the T/C runs as follows: under setting [6], 109 % of control; under setting [7], 98 % of control; (dose: 200.0 mg/kg/injection, schedule: Q01DX009 (ip), vehicle: saline) 111 % of control.

`O=C(/C=C/c1ccncc1)c1cccc2ccccc12`: the T/C is, setting by setting: under setting [4], 102 % of control; under setting [5], 108 % of control; under setting [6], 100 % of control; under setting [7], 116 % of control.

As for `CCN(CCS)Cc1ccccc1`, the T/C was 100 % of control (dose: 25.0 mg/kg/injection, schedule: Q04DX003 (ip), vehicle: saline with Tween-80); 104 % of control (dose: 50.0 mg/kg/injection, schedule: Q04DX003 (ip), vehicle: saline with Tween-80); 109 % of control (dose: 100.0 mg/kg/injection, schedule: Q04DX003 (ip), vehicle: saline with Tween-80).

For `c1ccc(CCNCc2ccccc2)cc1`, the T/C is 100 % of control under setting [8], 100 % of control under setting [9] and 100 % of control under setting [10].

For `CCC1(O)CC2CN(CCc3c([nH]c4ccccc34)C(C(=O)OC)(c3cc4c(cc3OC)N(C)C3C(O)(C(=O)NCCO)C(O)C5(CC)C=CCN6CCC43C65)C2)C1` (stereo unspecified), the T/C reads like this: (dose: 500.0 micrograms/kg/injection, schedule: Q04DX003 (ip), vehicle: saline) 173 % of control; (dose: 1000.0 micrograms/kg/injection, schedule: Q04DX003 (ip), vehicle: saline) 182 % of control; (dose: 2000.0 micrograms/kg/injection, schedule: Q04DX003 (ip), vehicle: saline) 219 % of control; (dose: 4000.0 micrograms/kg/injection, schedule: Q04DX003 (ip), vehicle: saline) 286 % of control.

With `Br[CH2][Sn]([Br])([Br])[CH2]Br`, the T/C reads like this: (dose: 3.12 mg/kg/injection, schedule: Q01DX009 (ip), vehicle: saline with Tween-80) 111 % of control; under setting [11], 98 % of control; under setting [12], 115 % of control.

Take `C=CCO`: the T/C by setting is: (dose: 12.5 mg/kg/injection, schedule: Q01DX001 (ip), vehicle: saline with Tween-80) 95 % of control; (dose: 25.0 mg/kg/injection, schedule: Q01DX001 (ip), vehicle: saline with Tween-80) 104 % of control; (dose: 50.0 mg/kg/injection, schedule: Q01DX001 (ip), vehicle: saline with Tween-80) 100 % of control.

Turning to `CCOc1ccc(NC(=O)C23CC4CC(CC(C4)C2)C3)cc1`, the T/C reads like this: under setting [12], 100 % of control; under setting [8], 100 % of control; under setting [9], 100 % of control.

As for `CC(O)COCc1ccccc1` (stereo unspecified), the T/C under setting [1] was 100 % of control, the T/C under setting [2] is 87 % of control and the T/C under setting [3] is 108 % of control.

Consider `O=c1ccccc(Br)c1O`, for which the T/C was 110 % of control (dose: 25.0 mg/kg/injection, schedule: Q01DX001 (ip), vehicle: Klucel (hydroxypropylcellulose) (HPC)) and 121 % of control (dose: 100.0 mg/kg/injection, schedule: Q01DX001 (ip), vehicle: Klucel (hydroxypropylcellulose) (HPC)).

In the case of `CCCCNP(=O)(N1CC1CC)N1CC1CC` (stereo unspecified), under setting [1], the T/C was 122 % of control.

In the case of `CS(=O)(=O)/C=C(\c1ccccc1)c1cccs1`, the T/C under setting [9] is 114 % of control, the T/C under setting [10] is 100 % of control and the T/C under setting [13] was 96 % of control.

Consider `c1cc(Nc2ccncc2)ccn1`, for which the T/C under setting [11] was 96 % of control; the T/C (dose: 6.25 mg/kg/injection, schedule: Q04DX003 (ip), vehicle: saline) was 115 % of control; the T/C under setting [12] is 104 % of control; the T/C (dose: 12.5 mg/kg/injection, schedule: Q04DX003 (ip), vehicle: saline) was 92 % of control; the T/C under setting [8] was 108 % of control; the T/C (dose: 25.0 mg/kg/injection, schedule: Q04DX003 (ip), vehicle: saline) is 107 % of control.

Regarding `O=C(O)CCC(=O)c1ccc(C2CCCCCC2)cc1`, the T/C reads like this: under setting [9], 110 % of control; under setting [10], 115 % of control; under setting [1], 95 % of control; under setting [13], 110 % of control; under setting [3], 100 % of control.

With `CCOC(=O)C1SC(=S)N(C)C1=O` (stereo unspecified), the T/C was 94 % of control under setting [9], 100 % of control under setting [10] and 100 % of control under setting [13].

On to `Cn1cc(/C=C/C(N)=O)c2nccnc21`, for which the T/C by setting is: (dose: 1.56 mg/kg/injection, schedule: Q01DX009 (ip), vehicle: water) 114 % of control; (dose: 3.12 mg/kg/injection, schedule: Q01DX009 (ip), vehicle: water) 100 % of control; (dose: 3.12 mg/kg/injection, schedule: Q04DX003 (ip), vehicle: water) 115 % of control; (dose: 6.25 mg/kg/injection, schedule: Q01DX009 (ip), vehicle: water) 95 % of control; (dose: 6.25 mg/kg/injection, schedule: Q04DX003 (ip), vehicle: water) 106 % of control; (dose: 12.5 mg/kg/injection, schedule: Q01DX009 (ip), vehicle: water) 96 % of control. In addition, the T/C runs as follows: (dose: 12.5 mg/kg/injection, schedule: Q04DX003 (ip), vehicle: water) 98 % of control; (dose: 25.0 mg/kg/injection, schedule: Q01DX009 (ip), vehicle: water) 100 % of control and 102 % of control; (dose: 25.0 mg/kg/injection, schedule: Q04DX003 (ip), vehicle: water) 98 % of control; (dose: 50.0 mg/kg/injection, schedule: Q01DX009 (ip), vehicle: water) 86 % of control; (dose: 50.0 mg/kg/injection, schedule: Q04DX003 (ip), vehicle: water) 102 % of control.

As to `NC(=O)c1nnc2cccc(Cl)n12`, the T/C under setting [14] is 112 % of control, the T/C under setting [15] was 103 % of control and the T/C under setting [16] was 96 % of control.

As for `NC(CS(=O)(=O)c1ccc(N(CCCl)CCCl)cc1)C(=O)O` (stereo unspecified), the T/C under setting [14] is 108 % of control, the T/C under setting [15] is 101 % of control and the T/C under setting [16] is 90 % of control.

For `CN(CCCN(C)N=Nc1ccccc1C(=O)O)N=Nc1ccccc1C(=O)O`, the T/C was 92 % of control under setting [1], 88 % of control under setting [2] and 92 % of control under setting [3].

As to `O=[N+]([O-])O.[Ag]`, the T/C by setting is: (dose: 10.0 mg/kg/injection, schedule: Q01DX009 (ip), vehicle: saline with Tween-80) 96 % of control; (dose: 40.0 mg/kg/injection, schedule: Q01DX009 (ip), vehicle: saline with Tween-80) 92 % of control; (dose: 40.0 mg/kg/injection, schedule: Q04DX003 (ip), vehicle: saline with Tween-80) 90 % of control.
